The results in this text go back to patent US20140287447A1, “Ultrasensitive methodology for quantifying the kinase catalytic activity of any protein kinase in biological/clinical samples or recombinant/purified proteins using near-infrared-fluorescence (NIRF)-labeled, kinase-selective peptide substrates and a combination of kinase-selective inhibitors to …” (priority 2013, published 2014).

Data set [1] concerns MDA-MB-231 breast cancer cell lysates. Briefly: NIRF-based kinase reaction in breast cancer cell lysates with and without PKC-inhibitor cocktail. The data set is classed as biochemical. To be noted: cGMP 10 μM, MDA-MB-231 cell lysates. As for the experimental part: This allows simultaneous determination of PKG-I kinase activity in MDA-MB-231 breast cancer cell lysates (D).
Each reagent has been previously experimentally tested to be the optimum concentration used for a complete radioactive-free kinase reaction to measure PKG kinase activity. The reagents for homogenizing buffer include: 20 mM Potassium phosphate (pH 7.0), 10 mM EDTA, 0.5 mM isobutylmethylxanthine, and 10 mM DTT.
Table 5 is the disclosure protocol that is illustrated as a work flow in FIG. 7. Biological samples can be prepared in the homogenizing buffer (Table 4) using a variety of techniques. These techniques include, but are not limited to: sonication, dounce-homogenation, the use of a tissue grinder, and/or a detergent specialized for lysing cells. Once a biological sample is prepared in the specially formulated homogenizing buffer from Table 4 or purified/recombinant protein buffer recommended by the manufacturer (2) included in the disclosure, the sample can be added to a sterile microfuge tube containing the radioactive-free kinase reaction mixture containing NIRF-Histone-H2B(29-35) (Table 3 and FIG. 1) (4). The kinase reaction typically requires an incubation chamber capable of reaching a temperature of 30° C. to incubate the samples. The time and temperature of incubation is determined by the researcher, but short incubation times of 2 minutes can be used. […]

Substrate in data set [2]: Nc1ncnc2c1ncn2[C@@H]1O[C@H](COP(=O)(O)OP(=O)(O)OP(=O)(O)O)[C@@H](O)[C@H]1O
The data set can be described thus: purified protein, by the assay type. To be noted: 30.0 °C.

With `Nc1nc2c(ncn2[C@@H]2O[C@@H]3COP(=O)(O)O[C@H]3[C@H]2O)c(=O)[nH]1` [cGMP, cyclic guanosine monophosphate], the “effect of exogenously-added cGMP on kinase activity in cell lysates” value in data set [1] was “does not cause increased kinase activity”.

B1: recombinant PKG-Iα (rPKG-Iα) (Homo sapiens) (protein)
chain: MSELEEDFAKILMLKEERIKELEKRLSEKEEEIQELKRKLHKCQSVLPVPSTHIGPRTTRAQGISAEPQTYRSFHDLRQAFRKFTKSERSKDLIKEAILDNDFMKNLELSQIQEIVDCMYPVEYGKDSCIIKEGDVGSLVYVMEDGKVEVTKEGVKLCTMGPGKVFGELAILYNCTRTATVKTLVNVKLWAIDRQCFQTIMMRTGLIKHTEYMEFLKSVPTFQSLPEEILSKLADVLEETHYENGEYIIRQGARGDTFFIISKGTVNVTREDSPSEDPVFLRTLGKGDWFGEKALQGEDVRTANVIAAEAVTCLVIDRDSFKHLIGGLDDVSNKAYEDAEAKAKYEAEAAFFANLKLSDFNIIDTLGVGGFGRVELVQLKSEESKTFAMKILKKRHIVDTRQQEHIRSEKQIMQGAHSDFIVRLYRTFKDSKYLYMLMEACLGGELWTILRDRGSFEDSTTRFYTACVVEAFAYLHSKGIIYRDLKPENLILDHRGYAKLVDFGFAKKIGFGKKTWTFCGTPEYVAPEIILNKGHDISADYWSLGILMYELLTGSPPFSGPDPMKTYNIILRGIDMIEFPKKIAKNAANLIKKLCRDNPSERLGNLKNGVKDIQKHKWFEGFNWEGLRKGTLTPPIIPSVASPTDTSNFDSFPEDNDEPPPDDNSGWDIDF
The Km is the substrate concentration at which the rate is half of its maximum. For B1, the Km in data set [2] was found to be 8.8 µM.
